In the NIST ThermoML archive (doi:10.1016/j.jct.2012.06.031):

Assay: xn = mol fraction of the nth substance listed
Settings: 101 kPa, Liquid; for viscosity: Concentric cylinders viscometry; for mass density: Vibrating tube method

c1ccncc1 [pyridine] + OCC(O)CO
Settings | mass density [kg/m3] | viscosity [mPa·s]
288.15 K, x1 = 0.1 | 1237.23 | 1518
288.15 K, x1 = 0.2001 | 1209.17 | 853.01
288.15 K, x1 = 0.3001 | 1182.56 | 438.65
288.15 K, x1 = 0.4 | 1156.91 | 202.46
288.15 K, x1 = 0.4998 | 1130.25 | 86.64
288.15 K, x1 = 0.6001 | 1103.35 | 29.67
288.15 K, x1 = 0.6999 | 1075.51 | 7.871
288.15 K, x1 = 0.8001 | 1047.04 | 4.241
288.15 K, x1 = 0.8999 | 1018 | 1.944
288.15 K, x1 = 1 | 988.061 | 1.03
293.15 K, x1 = 0.1 | 1233.99 | 946.3
293.15 K, x1 = 0.2001 | 1205.75 | 539.76
293.15 K, x1 = 0.3001 | 1178.91 | 283.85
293.15 K, x1 = 0.4 | 1153.16 | 135.63
293.15 K, x1 = 0.4998 | 1126.26 | 60.5
293.15 K, x1 = 0.6001 | 1099.12 | 22.37
293.15 K, x1 = 0.6999 | 1071.23 | 6.966
293.15 K, x1 = 0.8001 | 1042.41 | 3.639
293.15 K, x1 = 0.8999 | 1013.18 | 1.748
293.15 K, x1 = 1 | 983.038 | 0.9588
298.15 K, x1 = 0.1 | 1230.73 | 608.94
298.15 K, x1 = 0.2001 | 1202.25 | 352.75
298.15 K, x1 = 0.3001 | 1175.23 | 189.75
298.15 K, x1 = 0.4 | 1149.36 | 93.82
298.15 K, x1 = 0.4998 | 1122.23 | 43.51
298.15 K, x1 = 0.6001 | 1094.86 | 17.25
298.15 K, x1 = 0.6999 | 1066.63 | 6.111
298.15 K, x1 = 0.8001 | 1037.6 | 3.155
298.15 K, x1 = 0.8999 | 1008.34 | –
298.15 K, x1 = 1 | 978.006 | 0.8943
303.15 K, x1 = 0.1 | 1227.44 | 403.56
303.15 K, x1 = 0.2001 | 1198.74 | 237.3
303.15 K, x1 = 0.3001 | 1171.52 | 130.53
303.15 K, x1 = 0.4 | 1145.49 | 66.75
303.15 K, x1 = 0.4998 | 1118.17 | 32.21
303.15 K, x1 = 0.6001 | 1090.58 | 13.57
303.15 K, x1 = 0.6999 | 1062.16 | 5.257
303.15 K, x1 = 0.8001 | 1033.11 | 2.765
303.15 K, x1 = 0.8999 | 1003.49 | 1.439
303.15 K, x1 = 1 | 972.967 | 0.8355
308.15 K, x1 = 0.1 | 1224.12 | 275.49
308.15 K, x1 = 0.2001 | 1195.32 | 164.23
308.15 K, x1 = 0.3001 | 1167.95 | 92.29
308.15 K, x1 = 0.4 | 1141.6 | 48.72
308.15 K, x1 = 0.4998 | 1114.07 | 24.45
308.15 K, x1 = 0.6001 | 1086.27 | 10.87
308.15 K, x1 = 0.6999 | 1057.66 | 4.532
308.15 K, x1 = 0.8001 | 1028.43 | 2.441
308.15 K, x1 = 0.8999 | 998.628 | 1.316
308.15 K, x1 = 1 | 967.913 | 0.7837
313.15 K, x1 = 0.1 | 1220.77 | 192.54
313.15 K, x1 = 0.2001 | 1191.92 | 116.47
313.15 K, x1 = 0.3001 | 1164.44 | 66.86
313.15 K, x1 = 0.4 | 1137.67 | 36.35
313.15 K, x1 = 0.4998 | 1109.95 | 18.9
313.15 K, x1 = 0.6001 | 1081.93 | 8.841
313.15 K, x1 = 0.6999 | 1053.14 | 3.95
313.15 K, x1 = 0.8001 | 1023.73 | 2.172
313.15 K, x1 = 0.8999 | 993.746 | 1.209
313.15 K, x1 = 1 | 962.849 | 0.7354
318.15 K, x1 = 0.1 | 1217.48 | 137.7
318.15 K, x1 = 0.2001 | 1188.63 | 84.41
318.15 K, x1 = 0.3001 | 1160.93 | 49.31
318.15 K, x1 = 0.4 | 1133.7 | 27.66
318.15 K, x1 = 0.4998 | 1105.79 | 14.88
318.15 K, x1 = 0.6001 | 1077.57 | 7.298
318.15 K, x1 = 0.6999 | 1048.59 | 3.463
318.15 K, x1 = 0.8001 | 1019 | 1.944
318.15 K, x1 = 0.8999 | 988.846 | 1.114
318.15 K, x1 = 1 | 957.769 | 0.6912
323.15 K, x1 = 0.1 | 1214.26 | 101.38
323.15 K, x1 = 0.2001 | 1185.34 | 63.12
323.15 K, x1 = 0.3001 | 1157.38 | 38.06
323.15 K, x1 = 0.4 | 1129.71 | 21.58
323.15 K, x1 = 0.4998 | 1101.59 | 12.04
323.15 K, x1 = 0.6001 | 1073.01 | 6.153
323.15 K, x1 = 0.6999 | 1044.02 | 3.06
323.15 K, x1 = 0.8001 | 1014.26 | 1.769
323.15 K, x1 = 0.8999 | 983.927 | 1.038
323.15 K, x1 = 1 | 952.673 | 0.6507
